*1 amine or outer side, *2 acyl side, *3 side chain or, on linkers, in order; H or OH if unused. Where a SMILES comes first, the peptide text is derived from it. Bridges are numbered along the chain shown (N, C = ends). Roman numbers before positions name the chains, in order. [ ]: non-standard residue; d: D form. Actinocin(9to1) = Cc1c2oc3c(C)ccc(C(=O)[*:1])c3nc-2c(C(=O)[*:2])c(N)c1=O; NMeV = CN[C@H](C(=O)O)C(C)C; Sar = CNCC(=O)O
What was measured:
Assay type in all cases: cell-based, human
[1] = system: MLL-rearranged leukemia cell lines (SEM, B1, KOPN8, MOLT-3, TIB-202); assay: In-vitro cytotoxicity across the panel of leukemia cell lines
MOLT-3 cell line = assay: cells
TIB-202 cell line = assay: cells
B1 cell line = assay: cells
SEM cell line = assay: cells
KOPN8 cell line = assay: cells
[2] = Homo sapiens, for four of five cell lines
[3] = Homo sapiens, all five MLL-rearranged cell lines
[4] = Homo sapiens, KOPN-8, in TIB-202, KOPN8, SEM, and B1 cells

Row | Compound | IC50 (MOLT-3 cell line; Homo sapiens, MOLT-3, 96 h) | IC50 (TIB-202 cell line; Homo sapiens, 96 h) | IC50 (B1 cell line; Homo sapiens, 96 h) | IC50 (SEM cell line; Homo sapiens, 96 h) | IC50 (KOPN8 cell line; Homo sapiens, KOPN-8, 96 h) | IC50 [1, 3] | further results
1 | Nc1nc(Cl)nc2c1ncn2[C@@H]1O[C@H](CO)[C@@H](O)[C@@H]1F [Clofarabine] | > 10000 nM | < 10 nM | < 10 nM | 25.8 nM | 8.7 nM |  | IC50 [1, 2]: < 100 nM
2 | Cc1c2oc3c(C)ccc(C(=O)N[C@@H]4C(=O)N[C@H](C(C)C)C(=O)N5CCC[C@H]5C(=O)N(C)CC(=O)N(C)[C@@H](C(C)C)C(=O)O[C@@H]4C)c3nc-2c(C(=O)N[C@@H]2C(=O)N[C@H](C(C)C)C(=O)N3CCC[C@H]3C(=O)N(C)CC(=O)N(C)[C@@H](C(C)C)C(=O)O[C@@H]2C)c(N)c1=O [Dactinomycin] (I: T[dV]P[Sar][NMeV] / II: T[dV]P[Sar][NMeV]; ester I:1-I:C, II:1-II:C; linker I:N-II:N via Actinocin(9to1)) | < 10 nM | < 0.01 nM | < 10 nM | < 10 nM |  | < 1000 nM | 
3 | COc1cccc2c1C(=O)c1c(O)c3c(c(O)c1C2=O)C[C@@](O)(C(C)=O)C[C@@H]3O[C@H]1C[C@H](N)[C@H](O)[C@H](C)O1 [Daunorubicin] | < 10 nM | 10.8 nM | 9.45 nM | < 10 nM | < 5 nM | < 1000 nM | 
4 | CC(=O)O[C@@]12CO[C@@H]1C[C@H](O)[C@@]1(C)C(=O)[C@H](O)C3=C(C)[C@@H](OC(=O)[C@H](O)[C@@H](NC(=O)OC(C)(C)C)c4ccccc4)C[C@@](O)([C@@H](OC(=O)c4ccccc4)[C@H]21)C3(C)C [Docetaxel] |  | 58.8 nM | 0.278 nM | < 10 nM | < 10 nM | < 1000 nM | IC50 [1, 4]: < 100 nM; IC50 (MOLT-3 cell line; Homo sapiens, MOLT-3): < 10 nM
5 | COc1cc([C@@H]2c3cc4c(cc3[C@@H](O[C@@H]3O[C@@H]5CO[C@@H](C)O[C@H]5[C@H](O)[C@H]3O)[C@H]3COC(=O)[C@H]23)OCO4)cc(OC)c1O [Etoposide] | 107 nM | 456 nM | 710 nM | 92.8 nM | 19.7 nM | < 1000 nM | 
6 | Nc1nc(F)nc2c1ncn2[C@@H]1O[C@H](CO)[C@@H](O)[C@@H]1O [Fludarabine] |  |  |  |  |  |  | IC50 ([1]; for four of five cell lines): < 1000 nM; IC50 (MOLT-3 cell line; Table S1, MOLT-3, 96 hours): > 10000 nM; IC50 (TIB-202 cell line; Table S1, TIB-202, 96 hours): 73.1 nM; IC50 (B1 cell line; Table S1, B1, 96 hours): 90.9 nM; IC50 (SEM cell line; Table S1, SEM, 96 hours): 88.7 nM; IC50 (KOPN8 cell line; Table S1, KOPN8, 96 hours): 70.5 nM
7 | Nc1ccn([C@@H]2O[C@H](CO)[C@@H](O)C2(F)F)c(=O)n1 [Gemcitabine] | < 10 nM | 56.5 nM | 25.7 nM | < 10 nM | < 5 nM | < 1000 nM | IC50 ([1]; Homo sapiens, leukemia cell lines tested, screen): < 50 nM
8 | CO[C@@]12[C@H](COC(N)=O)C3=C(C(=O)C(C)=C(N)C3=O)N1C[C@@H]1N[C@@H]12 [Mitomycin C] | 22.1 nM | 85.5 nM | 371 nM | 50.4 nM | 59.4 nM | < 1000 nM | IC50 ([1]; all five MLL-rearranged cell lines): < 500 nM
9 | O=C1c2c(O)ccc(O)c2C(=O)c2c(NCCNCCO)ccc(NCCNCCO)c21 [Mitoxantrone] | 342 nM | < 10 nM | < 10 nM | < 10 nM | < 10 nM | < 1000 nM | 
10 | CC(=O)O[C@H]1C(=O)[C@@]2(C)[C@H]([C@H](OC(=O)c3ccccc3)[C@]3(O)C[C@H](OC(=O)[C@H](O)[C@@H](NC(=O)c4ccccc4)c4ccccc4)C(C)=C1C3(C)C)[C@]1(OC(C)=O)CO[C@@H]1C[C@@H]2O [Paclitaxel] |  | 106 nM | 80.4 nM | < 10 nM | < 10 nM |  | IC50 [1, 4]: < 100 nM; IC50 (MOLT-3 cell line; Homo sapiens, MOLT-3): 10000 nM
11 | Nc1nc2[nH]cc(CCc3ccc(C(=O)N[C@@H](CCC(=O)O)C(=O)O)cc3)c2c(=O)[nH]1 [Pemetrexed] | 567 nM | 179 nM | 671 nM | > 10000 nM | 158 nM |  | IC50 [1, 2]: < 1000 nM
12 | CO[C@H]1C[C@@H]2CC[C@@H](C)[C@@](O)(O2)C(=O)C(=O)N2CCCC[C@H]2C(=O)O[C@H]([C@H](C)C[C@@H]2CC[C@@H](O)[C@H](OC)C2)CC(=O)[C@H](C)/C=C(\C)[C@@H](O)[C@@H](OC)C(=O)[C@H](C)C[C@H](C)/C=C/C=C/C=C/1C [Rapamycin] | < 10 nM | 7050 nM | 8.04 nM | < 10 nM | < 10 nM |  | 
13 | C1CN1c1nc(N2CC2)nc(N2CC2)n1 [Triethylenemelamine] | 260 nM | 447 nM | 397 nM | 481 nM | 197 nM |  | IC50 ([1]; Homo sapiens): < 1000 nM
14 | Oc1ncc(N(CCCl)CCCl)c(O)n1 [Uracil mustard] | 9660 nM | 2700 nM | 3650 nM | 4850 nM | 2220 nM |  | 
15 | Bleomycin |  |  |  |  |  |  | IC50 (MOLT-3 cell line; Table S1, MOLT-3, 96 hours): 8420 nM; IC50 (TIB-202 cell line; Table S1, TIB-202, 96 hours): 1070 nM; IC50 (B1 cell line; Table S1, B1, 96 hours): 2920 nM; IC50 (SEM cell line; Table S1, SEM, 96 hours): < 10 nM; IC50 (KOPN8 cell line; Table S1, KOPN8, 96 hours): 108 nM
16 | Carboplatin |  |  |  |  |  |  | IC50 (MOLT-3 cell line; Table S1, MOLT-3, 96 hours): 6970 nM; IC50 (TIB-202 cell line; Table S1, TIB-202, 96 hours): 7640 nM; IC50 (B1 cell line; Table S1, B1, 96 hours): 7730 nM; IC50 (SEM cell line; Table S1, SEM, 96 hours): > 10000 nM; IC50 (KOPN8 cell line; Table S1, KOPN8, 96 hours): 5140 nM

More lines, main results first:

Row | IC50 (MOLT-3 cell line; Homo sapiens, MOLT-3, 96 h) | IC50 (TIB-202 cell line; Homo sapiens, 96 h) | IC50 (B1 cell line; Homo sapiens, 96 h) | IC50 (SEM cell line; Homo sapiens, 96 h) | IC50 (KOPN8 cell line; Homo sapiens, KOPN-8, 96 h) | Compound | IC50 [1, 3] | further results
17 | 9630 nM | 5950 nM | 5660 nM | 1540 nM | 3860 nM | CNC(=O)c1cc(Oc2ccc(NC(=O)Nc3ccc(Cl)c(C(F)(F)F)c3)cc2)ccn1 [Sorafenib] |  | 
18 | > 10000 nM | > 5000 nM | > 10000 nM | > 10000 nM | > 5000 nM | CN(N=O)C(=O)N[C@@H](C=O)[C@@H](O)[C@H](O)[C@H](O)CO [Streptozocin] |  | 
19 | > 10000 nM | 3290 nM | 5360 nM | 135 nM | 3300 nM | CCN(CC)CCNC(=O)c1c(C)[nH]c(/C=C2\C(=O)Nc3ccc(F)cc32)c1C [Sunitinib] |  | 
20 | > 10000 nM | > 5000 nM | > 10000 nM | 9120 nM | > 5000 nM | Cn1nnc2c(C(N)=O)ncn2c1=O [Temozolomide] |  | 
21 | 11.7 nM | 49.1 nM | 29.8 nM | 9.28 nM | 0.18 nM | COc1cc([C@@H]2c3cc4c(cc3[C@@H](O[C@@H]3O[C@@H]5CO[C@@H](c6cccs6)O[C@H]5[C@H](O)[C@H]3O)[C@H]3COC(=O)[C@H]23)OCO4)cc(OC)c1O [Teniposide] | < 1000 nM | 
22 | > 10000 nM | > 5000 nM | > 10000 nM | > 10000 nM | > 5000 nM | O=C1CCC(N2C(=O)c3ccccc3C2=O)C(=O)N1 (stereo not shown) [Thalidomide] |  | 
23 | 7050 nM | 5200 nM | 8770 nM | 938 nM | 4500 nM | Nc1nc2nc[nH]c2c(=S)[nH]1 [Thioguanine] |  | 
24 | 3010 nM | 5000 nM | 6380 nM | 3780 nM | 1960 nM | S=P(N1CC1)(N1CC1)N1CC1 [Thiotepa] |  | 
25 | < 10 nM | 45.3 nM | 27.6 nM | < 10 nM | < 10 nM | CC[C@@]1(O)C(=O)OCc2c1cc1n(c2=O)Cc2cc3c(CN(C)C)c(O)ccc3nc2-1 [Topotecan] | < 1000 nM | 
26 | > 10000 nM | > 5000 nM | > 10000 nM | > 10000 nM | > 5000 nM | CC1=C(/C=C/C(C)=C/C=C/C(C)=C/C(=O)O)C(C)(C)CCC1 [Tretinoin] |  | 
27 | > 10000 nM | > 10000 nM | > 10000 nM | > 10000 nM | > 10000 nM | O=P(O)(O)C(O)(Cn1ccnc1)P(=O)(O)O [Zoledronic acid] |  | 

— publication PMC3176174 (OncoTargets and therapy, 2011)
